# Measured values published in publication PMC5379747, “Structural basis for a novel type of cytokinin-activating protein” (Scientific Reports, 2017).
# Experiments:
# [1] = target: Cg1261 DNR-truncated (Cg1261ΔDNR) (Corynebacterium glutamicum ATCC 13032); assay: SAXS; in solution, 4 °C, 0.5 ~4.5 mg/mL; molecular mass by the QR method
# [2] = target: Cg1261 DNR-truncated (Cg1261ΔDNR) (Corynebacterium glutamicum ATCC 13032); assay: SEC; analytical, Superdex 200 10/300, 150 mM NaCl, 1 mL of 3 mg/ml; masses from a calibration curve of standards
# [3] = target: Cg1261 (CgLOGII), full-length, from Corynebacterium glutamicum ATCC 13032 (Corynebacterium glutamicum ATCC 13032); assay: SAXS; in solution, 4 °C, 0.5 ~4.5 mg/mL; molecular mass by the QR method
# [4] = target: Cg1261 (CgLOGII), full-length, from Corynebacterium glutamicum ATCC 13032 (Corynebacterium glutamicum ATCC 13032); assay: SEC; analytical, Superdex 200 10/300, 150 mM NaCl, 1 mL of 3 mg/ml; masses from a calibration curve of standards
# [5] = target: Cg1261 (CgLOGII), full-length, from Corynebacterium glutamicum ATCC 13032 (Corynebacterium glutamicum ATCC 13032); assay: crystal structure; CgLOGII crystals, space group C222_(1), three molecules in the asymmetric unit; hexamer generated by crystallographic symmetry; 1.95 Å
# [6] = target: T1, Cg1261 (CgLOGII, CgLOGIIF) (Corynebacterium glutamicum, UniProt Q8NRE2, M185A); assay: TLC detection of adenine released from AMP; format: biochemical; details: 20 mM AMP, 36 mM Tris-HCl pH 8.0, 23 μM enzyme, 6 h
# T1 construct: gene Cgl1110; full length, pET30a with C-terminal 6xHis, E. coli BL21(DE3), hexamer; residues 1-39 disordered in crystal
# T1 sequence (Q8NRE2 entry or part of it M185A): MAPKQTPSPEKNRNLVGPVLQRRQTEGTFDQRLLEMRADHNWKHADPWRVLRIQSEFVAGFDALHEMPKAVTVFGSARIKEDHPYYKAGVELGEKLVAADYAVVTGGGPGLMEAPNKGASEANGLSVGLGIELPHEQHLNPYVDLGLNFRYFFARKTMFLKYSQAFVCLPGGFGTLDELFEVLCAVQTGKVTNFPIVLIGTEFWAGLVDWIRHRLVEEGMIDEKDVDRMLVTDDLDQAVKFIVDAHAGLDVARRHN
# Tt1465 (TtLOGII) = target: T2, Tt1465 (TtLOGII) (Thermus thermophilus, UniProt Q5SHT6); assay: TLC detection of adenine released from AMP; format: biochemical; details: 20 mM AMP, 36 mM Tris-HCl pH 8.0, 23 μM enzyme, 65 °C
# T2 construct: gene TTHA1644; recombinant, prepared similarly to CgLOGII; hexamer
# T2 sequence (Q5SHT6 1-217): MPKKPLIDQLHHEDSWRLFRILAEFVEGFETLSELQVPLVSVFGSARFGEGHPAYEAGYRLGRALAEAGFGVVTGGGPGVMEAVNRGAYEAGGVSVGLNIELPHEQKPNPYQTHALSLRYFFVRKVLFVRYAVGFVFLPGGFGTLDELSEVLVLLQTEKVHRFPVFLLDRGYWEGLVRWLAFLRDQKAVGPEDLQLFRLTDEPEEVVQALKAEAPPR
# [7] = target: T3, Cg1261 (CgLOGII, CgLOGIIF) (Corynebacterium glutamicum, UniProt Q8NRE2); assay: TLC detection of adenine released from AMP; format: biochemical; details: 20 mM AMP, 36 mM Tris-HCl pH 8.0, 23 μM enzyme, 30 °C
# T3 construct: gene Cgl1110; full length, pET30a with C-terminal 6xHis, E. coli BL21(DE3), hexamer; residues 1-39 disordered in crystal
# T3 sequence (Q8NRE2 1-256): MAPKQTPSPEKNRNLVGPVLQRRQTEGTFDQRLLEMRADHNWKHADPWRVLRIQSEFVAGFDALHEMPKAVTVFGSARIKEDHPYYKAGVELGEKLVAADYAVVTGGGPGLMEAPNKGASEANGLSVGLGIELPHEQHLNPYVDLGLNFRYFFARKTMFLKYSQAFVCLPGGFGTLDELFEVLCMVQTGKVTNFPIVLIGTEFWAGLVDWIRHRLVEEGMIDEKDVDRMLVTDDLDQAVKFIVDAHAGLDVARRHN
# Cg1261ΔDNR (CgLOGIIΔDNR) = target: T4, Cg1261ΔDNR (CgLOGIIΔDNR) (Corynebacterium glutamicum, UniProt Q8NRE2); assay: TLC detection of adenine released from AMP; format: biochemical; details: 20 mM AMP, 36 mM Tris-HCl pH 8.0, 23 μM enzyme, 30 °C
# T4 construct: gene Cgl1110; E. coli expressed, hexamer
# [8] = target: T5, Cg1261 (CgLOGII, CgLOGIIF) (Corynebacterium glutamicum, UniProt Q8NRE2, D177A); assay: TLC detection of adenine released from AMP; format: biochemical; details: 20 mM AMP, 36 mM Tris-HCl pH 8.0, 23 μM enzyme, 6 h
# T5 construct: gene Cgl1110; full length, pET30a with C-terminal 6xHis, E. coli BL21(DE3), hexamer; residues 1-39 disordered in crystal
# T5 sequence (Q8NRE2 entry or part of it D177A): as the sequence (Q8NRE2 entry or part of it M185A) above, with D177A, A185M counted along it
# [9] = target: T6, Cg1261 (CgLOGII, CgLOGIIF) (Corynebacterium glutamicum, UniProt Q8NRE2, F153A); assay: TLC detection of adenine released from AMP; format: biochemical; details: 20 mM AMP, 36 mM Tris-HCl pH 8.0, 23 μM enzyme, 6 h
# T6 construct: gene Cgl1110; full length, pET30a with C-terminal 6xHis, E. coli BL21(DE3), hexamer; residues 1-39 disordered in crystal
# T6 sequence (Q8NRE2 entry or part of it F153A): as the sequence (Q8NRE2 entry or part of it M185A) above, with F153A, A185M counted along it
# [10] = target: T7, Cg1261 (CgLOGII, CgLOGIIF) (Corynebacterium glutamicum, UniProt Q8NRE2, F152A); assay: TLC detection of adenine released from AMP; format: biochemical; details: 20 mM AMP, 36 mM Tris-HCl pH 8.0, 23 μM enzyme, 6 h
# T7 construct: gene Cgl1110; full length, pET30a with C-terminal 6xHis, E. coli BL21(DE3), hexamer; residues 1-39 disordered in crystal
# T7 sequence (Q8NRE2 entry or part of it F152A): as the sequence (Q8NRE2 entry or part of it M185A) above, with F152A, A185M counted along it
# [11] = target: CgLOG (Cg2612) from Corynebacterium glutamicum (Corynebacterium glutamicum); assay: SEC; analytical, Superdex 200 10/300, 150 mM NaCl, 1 mL of 3 mg/ml; masses from a calibration curve of standards
compound,measurement,setting,value
Cg1261 DNR-truncated (Cg1261ΔDNR) (domain or fragment),stoichiometry N,[1],6
same,stoichiometry N,[2],6
"Cg1261 (CgLOGII), full-length, from Corynebacterium glutamicum ATCC 13032 (enzyme)",stoichiometry N,[3],6
same,stoichiometry N,[4],6
same,stoichiometry N,[5],6
Nc1ncnc2c1ncn2[C@@H]1O[C@H](COP(=O)(O)O)[C@@H](O)[C@H]1O [AMP],TLC detection of adenine released from AMP,[6],"such as Phe152, Phe153, and Met185, substituted with alanine still showed the activity"
same,TLC detection of adenine released from AMP,Tt1465 (TtLOGII),Tt1465 hydrolyzed AMP into an adenine base and ribose 5-phosphate
same,TLC detection of adenine released from AMP,[7],hydrolyzed AMP into an adenine base and ribose 5-phosphate
same,TLC detection of adenine released from AMP,Cg1261ΔDNR (CgLOGIIΔDNR),Cg1261ΔDNR showed the same level of phosphoribohydrolase activity as Cg1261
same,TLC detection of adenine released from AMP,[8],Asp177Ala substitution resulted in an almost complete loss of the activity
same,TLC detection of adenine released from AMP,[9],"such as Phe152, Phe153, and Met185, substituted with alanine still showed the activity"
same,TLC detection of adenine released from AMP,[10],"such as Phe152, Phe153, and Met185, substituted with alanine still showed the activity"
CgLOG (Cg2612) from Corynebacterium glutamicum (enzyme),stoichiometry N,[11],2
